Values quoted from earlier work in patent US6054456A, “Substituted piperazine derivatives” (Merck Sharp & Dohme Ltd., priority 1995, dated 2000).

Legend:
[1] = test system: human 5-HT1Dα and 5-HT1Dβ receptor subtypes; details: cf. WO-A-91/171174, Table 1
[2] = humans, therapeutic doses

Q: Which “discrimination between the human 5-HT1Dα and 5-HT1Dβ receptor subtypes” value [1] does the source give for `CNS(=O)(=O)Cc1ccc2[nH]cc(CCN(C)C)c2c1` [sumatriptan] here?
A: barely discriminates between the human 5-HT1Dα and 5-HT1Dβ receptor subtypes

Q: And the adverse events [2]?
A: certain adverse cardiovascular events
